The subject of data set [1] is Bacillus subtilis ATCC 62037. The experiment in a line: MIC, microdilution in 96-well plate. The data set is classed as cell-based. The conditions noted are these: overnight 37° C., 3% TSB. An excerpt:
(§1) All of the microorganisms used in the invention were obtained from the American Type Culture Collection (ATCC) Used were Bacillus subtilis ATCC 62037, Staphylococcus aureus ATCC 15752, Streptococcus mutans ATCC 25175, Pseudomonas putida ATCC 17426, Escherichia coli ATCC 27325, Salmonella typhimurium ATCC 15277, Seratia sp. ATCC 21074, Cryptococcus neoformans ATCC 34881, Saccharomyces cerevisiae ATCC 44774 and Candida albicans ATCC 10231.
(§2) The parasin I and its derivatives obtained in Example I were lyophilized, resuspended in water and assayed for antimicrobial activity against B. subtilis ATCC 62037. The purity of the isolated peptides was analyzed by reverse-phase HPLC and MALDI-MS (Kratos Kompact MALDI, England). The antimicrobial activity of the samples was determined during each purification step by the radial diffusion assay using B. subtilis ATCC 62037 according to the method of Lehrer et al. ((1991) J. Immunol. Methods, 137, 167-173). A 20 ml culture of B. subtilis ATCC 62037 cell in mid-logarithmic phase was washed with 10 mM sodium phosphate buffer (NAPB), pH 7.4, at […], and resuspended in 10 ml of the same buffer. A cell suspension containing 1×10^6 bacterial colony forming units (CFUs) was added to 6 ml of an underlayer agar (10 mM sodium phosphate, 1% (v/v) trypticase soy broth (TSB), 1% (w/v) agarose, pH 6.5) and this resulting mixture was poured into a Petri dish. Samples were added, at an amount of 5 μl, directly in 3-mm wells which were made on the solidified underlayer agar. After incubation for 3 hours at 37° C., the underlayer agar was covered with a nutrient-rich top agar overlay (6% (w/v) TSB, 1% (w/v) agarose) and incubated overnight at 37° C. Antimicrobial activity was determined by observing the zone of suppression of bacterial growth around the 3-mm wells. The minimal inhibitory concentrations (MICs) of the isolated peptide against the microorganisms were determined as described by Moore et al. ((1991) J. Biol. Chem., 266, 19851-19857). 100 μl microorganism suspensions (10^5 CFU/ml) in 3% (w/v) TSB were mixed with serial two-fold dilutions of the isolated peptide in a sterilized 96-well microtiter plate (Nunc, Denmark). The final concentration of the peptide ranged 0.5-200 μg/ml. The 96-well plate was incubated overnight at 37° C. and the inhibition of growth was determined by measuring the absorbance at 620 nm on a microplate reader, such as that sold by B10-Rad, U.S.A., under the brand name of Model 550. The MIC was defined as the lowest concentration of peptide that inhibited growth. In respect to the test for antimicrobial activity, 10 different microorganisms, including Gram-negative bacteria, Gram-positive bacteria and fungi were used.
In general terms: Broth dilution looks for growth in wells or tubes with falling amounts of substance.

In data set [2] the test system is Cryptococcus neoformans ATCC 34881. The experiment in a line: MIC, microdilution in 96-well plate. The data set is classed as cell-based. The settings on record: overnight 37° C., 3% TSB.
Text: as §1, §2

Data set [3] relates to Pseudomonas putida ATCC 17426. Nature of the data set: MIC, microdilution in 96-well plate. The data set is classed as cell-based. The settings on record: overnight 37° C., 3% TSB.
Text: as §1, §2

Data set [4] deals with Salmonella typhimurium ATCC 15277. The experiment in a line: MIC, microdilution in 96-well plate. The data set is classed as cell-based. The conditions noted are these: overnight 37° C., 3% TSB.
Text: as §1, §2

The subject of data set [5] is Streptococcus mutans ATCC 25175. The experiment in a line: MIC, microdilution in 96-well plate. The data set is classed as cell-based. The settings on record: overnight 37° C., 3% TSB.
Text: as §1, §2

Data set [6] relates to Staphylococcus aureus ATCC 15752. The experiment in a line: MIC, microdilution in 96-well plate. The data set is classed as cell-based. The conditions noted are these: overnight 37° C., 3% TSB.
Text: as §1, §2

Data set [7] has as its system Escherichia coli ATCC 27325. Nature of the data set: MIC, microdilution in 96-well plate. The data set is classed as cell-based. The settings on record: overnight 37° C., 3% TSB.
Text: as §1, §2

The subject of data set [8] is Candida albicans ATCC 10231. Nature of the data set: MIC, microdilution in 96-well plate. The conditions noted are these: overnight 37° C., 3% TSB. The data set is classed as cell-based.
Text: as §1, §2

The next data set deals with Serratia sp. Nature of the data set: MIC, microdilution in 96-well plate. The data set is classed as cell-based. The conditions noted are these: overnight 37° C., 3% TSB.
Text: as §1, §2

Data set [9] relates to Saccharomyces cerevisiae ATCC 44774. The experiment in a line: MIC, microdilution in 96-well plate. The data set is classed as cell-based. The conditions noted are these: overnight 37° C., 3% TSB.
Text: as §1, §2

The next data set deals with human erythrocytes. The experiment in a line: Hemolytic activity assay. The settings on record: peptide 200 μg/ml. How it is done: The hemolytic activity of the antimicrobial peptide was assayed as described by Park et al. (9).

Peptide text beside a SMILES is read from it.

Turning to Magainin 2 [reference compound], the MIC (as a rule, the smallest concentration in the dilution series that meets the test's criterion for growth inhibition) in data set [1] is 50 µg/mL; in [2], 12 µg/mL; in [3], 50 µg/mL; in data set [4], 25 µg/mL; in data set [5] it was 100 µg/mL; in data set [6] it was 50 µg/mL. Further, the MIC was determined as 100 µg/mL in data set [7], 25 µg/mL in data set [8], 50 µg/mL with Serratia sp. and 25 µg/mL in [9].
As to “K G R G K Q G G K V R A K A K T R S S (KGRGKQGGKVRAKAKTRSS) [Seq. No. 1]”, the MIC in data set [1] amounted to 0.5 µg/mL; in data set [2], 1 µg/mL; in data set [3], 2 µg/mL; in data set [4], 1 µg/mL; in data set [5] it was 0.5 µg/mL; in [6], 1 µg/mL. The MIC in data set [7] was found to be 0.5 µg/mL; in [8], 1 µg/mL; with Serratia sp., 4 µg/mL; in [9] it was 1 µg/mL.
Regarding “K G R G K Q G G K V R A K A K T R (KGRGKQGGKVRAKAKTR) [Seq. No. 2, synthetic derivative deficient of 2 carboxyl terminal residues of parasin I]”, the MIC in [1] came out at 0.5 µg/mL; in [2] it was 1 µg/mL; in data set [3] it was 2 µg/mL; in [4] it was 1 µg/mL; in data set [5] it was 0.5 µg/mL; in data set [6] it was 1 µg/mL. In addition, the MIC in [7] was found to be 0.5 µg/mL; in data set [8] it was 1 µg/mL; against Serratia sp. it was 2 µg/mL; in [9], 2 µg/mL.
As to `CC(C)[C@H](NC(=O)[C@H](CCCCN)NC(=O)CNC(=O)CNC(=O)[C@H](CCC(N)=O)NC(=O)[C@H](CCCCN)NC(=O)CNC(=O)[C@H](CCCNC(=N)N)NC(=O)CNC(=O)[C@@H](N)CCCCN)C(=O)N[C@@H](CCCNC(=N)N)C(=O)N[C@@H](C)C(=O)N[C@@H](CCCCN)C(=O)N[C@@H](C)C(=O)N[C@@H](CCCCN)C(=O)N[C@H](C(=O)N[C@@H](CCCNC(=N)N)C(=O)N[C@@H](CO)C(=O)N[C@@H](CO)C(=O)O)[C@@H](C)O` [Parasin I, Lys-Gly-Arg-Gly-Lys-Gln-Gly-Gly-Lys-Val-Arg-Ala-Lys-Ala-Lys-Thr-Arg-Ser-Ser] (H-KGRGKQGGKVRAKAKTRSS-OH), in the data set with human erythrocytes, the hemolysis is given as 0.2%.
On to Buforin I [reference compound], for which the MIC was determined as 4 µg/mL in data set [1]; 4 µg/mL in data set [2]; 4 µg/mL in data set [3]; 4 µg/mL in data set [4]; 8 µg/mL in data set [5]; 4 µg/mL in data set [6]. In addition, the MIC was determined as 8 µg/mL in [7], 4 µg/mL in [8], 8 µg/mL against Serratia sp. and 4 µg/mL in [9].
For the molecule “K G R G K Q G G K V R A K A K (KGRGKQGGKVRAKAK) [Seq. No. 3, synthetic derivative deficient of 4 carboxyl terminal residues of parasin I]”, the MIC in data set [1] was 1 µg/mL; in data set [2], 2 µg/mL; in data set [3], 2 µg/mL; in data set [4] it was 2 µg/mL; in data set [5], 1 µg/mL; in data set [6], 2 µg/mL. Also, the MIC in [7] stood at 1 µg/mL; in data set [8], 4 µg/mL; against Serratia sp., 4 µg/mL; in [9], 2 µg/mL.

The values above are taken from patent US6316594A, “Antimicrobial peptide isolated from parasilurus asotus and its uses” (priority 1998, dated 2001).
